Experimental data taken from US7893304B2, “Hydroquinone long-chain derivatives and/or phenoxy long-chain derivatives, and pharmaceuticals comprising the same” (Meiji Dairies Corporation, priority 2005, dated 2011).
Entries after “also recorded” stand apart in the source; their conditions may differ.

Legend:
[1] = DPPH scavenging ability test (active organic radical species scavenging ability); set-up: key to DPPH test: +: effective; −: >10 mM; conditions: for IC50: percent decrease in OD at 550 nm, 400 μM DPPH in ethanol
Experimental: The ability of the derivatives obtained in preparation processes A and B to scavenge 2,2-diphenyl-1-picrylhydrazyl (DPPH) (active organic radical species scavenging ability) was measured by the following method.
Trolox® and the test compounds were individually dissolved in ethanol and the solutions were adjusted to a final concentration of 10 mM. Next, each solution was diluted severalfold to obtain solutions at concentrations ranging from 10 mM to 1 μM.
100 μl of each of the obtained ethanol solutions was added to a multi-well ELISA plate along with 100 μl of 400 μM DPPH solution in ethanol. The absorbance (optical density, OD) at 550 nm was measured for these solutions.
DPPH scavenging ability was determined for each test compound based on the results of these measurements. For comparison, the test compound solutions in ethanol were substituted with ethanol alone.
The scavenging ability of each test compound is presented as a percent decrease in OD with respect to the absorbance of the comparative sample.

[2] = OH radical scavenging ability test (ABTS scavenging assay, Fenton reaction); set-up: key to OH test: +: effective; −: >10 mM; conditions: for IC50: ABTS competition, OD at 405 nm, 45 minutes at room temperature
Experimental: Hydroxyl radical scavenging ability was measured for derivatives obtained in preparation processes A, B, and E by the following method using an ABTS (2,2′-azinobis(3-ethylbenzthiazolin-6-sulfonic acid)) scavenging assay.
In this test, hydroxyl radicals were generated in situ by the Fenton reaction. Next, competitive reactions between ABTS and the test compounds took place, and the hydroxyl radicals were scavenged by ABTS to form ABTS^+ radical cations, or were scavenged by the test compounds.
The test compounds and Trolox® were individually dissolved in ethanol and the solutions were adjusted to a final concentration of 10 mM. Each solution was then diluted severalfold to obtain solutions at concentrations ranging from 10 mM to 1 μM.
Next, 180 μl of 1:1 ethanol-water solution was added to a multi-well ELISA plate, and then 30 μl of 1 mM aqueous ABTS solution, 30 μl of 0.5 mM aqueous Fe2SO4 solution, 30 μl of a solution of each test compound in ethanol, and 30 μl of 100 mM aqueous hydrogen peroxide solution were added. The obtained solutions were left to stand for 45 minutes at room temperature, and the absorbance (OD) at 405 nm was measured. OH radical scavenging ability was determined for each test compound based on the results of these measurements. For comparison, the test compound solutions in ethanol were substituted with ethanol alone.

[3] = system: E15 neurons; assay: Axonal growth in primary culture of CNS neurons (morphometric analysis); format: cell-based, mouse
Experimental: Fetal mouse (15 days old) cerebral hemispheres were dissected in cold Gey's balanced salt solution supplemented with glucose to isolate the neocortex. Cells were dispersed by trypsin and mechanical dissociation. Next, the cells were plated at a concentration of 200,000 cells/well onto cover slips coated with 1 μg/ml of poly-L-lysine, and the cells were cultured in a serum-containing medium (Dulbecco's modified Eagle medium, 2 mM glutamine, 1 g/l glucose, 10% fetal calf serum, and penicillin/streptomycin) in 5% CO2 at 37° C. for 24 hours.
On day 2, the medium was substituted with a chemically defined medium (Dulbecco's modified Eagle medium, 2 mM glutamine, 1 g/l glucose, 16 μg/ml putrescine, 52 ng/ml selenium, 10 μg/ml holotransferrin, 5 μg/ml insulin, and 3 ng/ml progesterone), and test compounds were added at different concentrations. The cells were cultured in 5% CO2 at 37° C. for 24 hours.
On day 3, the cells were fixed with 4% formaldehyde in phosphate buffered saline (PBS) for ten minutes. After two washes with PBS, permeation of cells was performed with 100% methanol for five minutes. […]
Photographs were randomly taken (×20 magnification) using an Axiovert 200 microscope (Zeiss) equipped with a digital camera. The axonal length of each neuron was determined using a computer-assisted image analyzer (UTHSCSA Image Tool 3.0).

[4] = system: E15 neurons; conditions: J. Neurochem., 90 (6), 1423-31, 2004; cited from earlier work
[5] = read-out: IC50, OH radical scavenging ability
[6] = read-out: IC50 (μM), OH radical scavenging ability

IC50 [1]	Structure (SMILES)	DPPH test ([1]; Table 3, formula (1) compounds)	DPPH test ([1]; Table 4, formula (2) compounds)	OH test ([2]; Table 4, formula (2) compounds)	other results
> 10 mM	COc1ccc(OC)c(CCCCCCCCCCCCO)c1 [Synthesis Example A-(5), 12-(2,5-dimethoxyphenyl)dodecan-1-ol]	− (−: >10 mM)	–	–	IC50 [2, 5]: > 10000 µM; OH test ([2]; Table 3, formula (1) compounds): − (−: >10 mM)
–	COc1ccc(OC)c(CCCCCCCCCCCCCCO)c1 [Synthesis Example A-(6), 14-(2,5-dimethoxyphenyl)tetradecan-1-ol]	− (−: >10 mM)	–	–	OH test ([2]; Table 3, formula (1) compounds): − (−: >10 mM)
–	COc1ccc(OC)c(CCCCCCCCCCCCCCCO)c1 [Synthesis Example A-(7), 15-(2,5-dimethoxyphenyl)pentadecan-1-ol]	− (−: >10 mM)	–	–	OH test ([2]; Table 3, formula (1) compounds): − (−: >10 mM); axonal growth-promoting activity (in words) ([3]; 24 hours with compound, listed as QFA15): the most active compound; also recorded: greater axonal growth-promoting ability at a lower concentration; also recorded: effective axonal growth-promoting agent; axonal growth-promoting effect, value of FIG. 4 micrographs ([3]; control 85 μM, the values are: axonal length): 155 µm
–	COc1ccc(OC)c(CCCCCCCCCCCCCCCCO)c1 [Synthesis Example A-(8), 16-(2,5-dimethoxyphenyl)hexadecan-1-ol]	− (−: >10 mM)	–	–	OH test ([2]; Table 3, formula (1) compounds): − (−: >10 mM)
> 10 mM	COc1ccc(OC)c(CCCCCCCCCCCCCCCCCCO)c1 [Synthesis Example A-(9), 18-(2,5-dimethoxyphenyl)octadecan-1-ol]	− (−: >10 mM)	–	–	IC50 [2, 5]: > 10000 µM; OH test ([2]; Table 3, formula (1) compounds): − (−: >10 mM)
–	COc1cc(OC)c(OC)cc1CCCCCCCCCCCCCCO [Synthesis Example B-(13), 14-(2,4,5-trimethoxyphenyl)tetradecan-1-ol]	− (−: >10 mM)	–	–	–
> 10 mM	COc1cc(OC)c(OC)cc1CCCCCCCCCCCCO [Synthesis Example B-(14), 12-(2,4,5-trimethoxyphenyl)dodecan-1-ol]	− (−: >10 mM)	–	–	IC50 [2, 6]: 720 µM
–	COc1cc(OC)c(OC)cc1CCCCCCCCCCCCCCCO [Synthesis Example B-(15), 15-(2,4,5-trimethoxyphenyl)pentadecan-1-ol]	− (−: >10 mM)	–	–	–
–	COc1cc(OC)c(OC)cc1CCCCCCCCCCCCCCCCO [Synthesis Example B-(16), 16-(2,4,5-trimethoxyphenyl)hexadecan-1-ol]	− (−: >10 mM)	–	–	–
> 10 mM	COc1cc(OC)c(OC)cc1CCCCCCCCCCCCCCCCCCO [Synthesis Example B-(17), 18-(2,4,5-trimethoxyphenyl)octadecan-1-ol]	− (−: >10 mM)	–	–	IC50 [2, 6]: 720 µM
–	COc1ccc(OC)c(NCCCCCCCCCCCCCCCCO)c1 [Synthesis Example C-(21), 16-(2,5-dimethoxyphenylamino)hexadecan-1-ol]	–	− (−: >10 mM)	− (−: >10 mM)	–
–	COc1ccc(OC)c(NCCCCCCCCCCCCCCO)c1 [Synthesis Example C-(22), 14-(2,5-Dimethoxyphenylamino)tetradecan-1-ol]	–	− (−: >10 mM)	− (−: >10 mM)	–
–	COc1ccc(OC)c(NCCCCCCCCCCCCO)c1 [Synthesis Example C-(23), 12-(2,5-Dimethoxyphenylamino)dodecan-1-ol]	–	− (−: >10 mM)	− (−: >10 mM)	–
–	COc1ccc(OC)c(NCCCCCCCCCCO)c1 [Synthesis Example C-(24), 10-(2,5-Dimethoxyphenylamino)decan-1-ol]	–	− (−: >10 mM)	− (−: >10 mM)	–
–	COc1ccc(OC)c(OCCCCCCCCCCCCO)c1 [Synthesis Example D-(29), 12-(2,5-dimethoxyphenoxy)dodecan-1-ol]	–	− (−: >10 mM)	− (−: >10 mM)	–
–	COc1ccc(OC)c(OCCCCCCCCCCCCCCCCO)c1 [Synthesis Example D-(30), 16-(2,5-dimethoxyphenoxy)hexadecan-1-ol]	–	− (−: >10 mM)	− (−: >10 mM)	–
0.23 mM	OCCCCCCCCCCCCc1cc(O)ccc1O [Synthesis Example E-(31), 2-(12-hydroxydodecyl)benzene-1,4-diol]	–	–	–	IC50 [2, 6]: 6 µM
0.23 mM	OCCCCCCCCCCCCCCCCCCc1cc(O)ccc1O [Synthesis Example E-(32), 2-(18-hydroxyoctadecyl)benzene-1,4-diol]	–	–	–	IC50 [2, 6]: 6 µM
1.53 mM	CCCCCCCCCCCCCCCCc1cc(O)ccc1O [Synthesis Example E-(33), 2-hexadecylbenzene-1,4-diol]	–	+	+	–
0.23 mM	OCCCCCCCCCCCCCCCc1cc(O)ccc1O [Synthesis Example E-(34), 2-(15-hydroxypentadecyl)benzene-1,4-diol]	–	–	–	IC50 [2, 6]: 6 µM
0.23 mM	Cc1c(C)c2c(c(C)c1O)CCC(C)(C(=O)O)O2 (stereo not shown) [Trolox ®, reference compound]	–	–	–	IC50 [2, 6]: 600 µM
–	CC1=C(CCCCCCCCCCCCCCCO)C(C)(C)CCC1=O [tCFA15, 3-(15-hydroxypentadecyl)-2,4,4-trimethyl-2-cyclohexen-1-one]	–	–	–	axonal growth-promoting activity in a previous study (in words) [4]: showed similar results
